Experimental data reported in patent publication US20250051344A1, “BIFUNCTIONAL SELECTIVE DEGRADERS OF SMARCA2 AND THERAPEUTIC USES THEREOF” (Nurix Therapeutics, Inc., priority 2023, published 2025).

How the values were obtained:
[1] = target: T1, SMARCA2 (Homo sapiens, UniProt P51531); experiment: SMARCA2 Cellular Degradation Assay (Western blot analysis on Jess platform); format: cell-based; details: for DC50 / Dmax: cellular degradation; for Fold Selectivity SMARCA4/2: ratio DC50 SMARCA4 / DC50 SMARCA2
T1 construct: endogenous in cells
Summary of the method: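 Lysates of cells extracted from tumors, 5 μg total protein per capillary, were probed for SMARCA2 and β-actin by capillary Western on Jess using chemiluminescence and fluorescence detection. SMARCA2 peak area was background-subtracted and normalized to actin, then expressed as % remaining relative to vehicle control.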

[2] = target: T2, SMARCA4 (Homo sapiens, UniProt P51532); experiment: Cellular degradation assay, SMARCA4 (Table 1); format: cell-based
T2 construct: endogenous in cells
T2 sequence (P51532 whole entry, species assumed): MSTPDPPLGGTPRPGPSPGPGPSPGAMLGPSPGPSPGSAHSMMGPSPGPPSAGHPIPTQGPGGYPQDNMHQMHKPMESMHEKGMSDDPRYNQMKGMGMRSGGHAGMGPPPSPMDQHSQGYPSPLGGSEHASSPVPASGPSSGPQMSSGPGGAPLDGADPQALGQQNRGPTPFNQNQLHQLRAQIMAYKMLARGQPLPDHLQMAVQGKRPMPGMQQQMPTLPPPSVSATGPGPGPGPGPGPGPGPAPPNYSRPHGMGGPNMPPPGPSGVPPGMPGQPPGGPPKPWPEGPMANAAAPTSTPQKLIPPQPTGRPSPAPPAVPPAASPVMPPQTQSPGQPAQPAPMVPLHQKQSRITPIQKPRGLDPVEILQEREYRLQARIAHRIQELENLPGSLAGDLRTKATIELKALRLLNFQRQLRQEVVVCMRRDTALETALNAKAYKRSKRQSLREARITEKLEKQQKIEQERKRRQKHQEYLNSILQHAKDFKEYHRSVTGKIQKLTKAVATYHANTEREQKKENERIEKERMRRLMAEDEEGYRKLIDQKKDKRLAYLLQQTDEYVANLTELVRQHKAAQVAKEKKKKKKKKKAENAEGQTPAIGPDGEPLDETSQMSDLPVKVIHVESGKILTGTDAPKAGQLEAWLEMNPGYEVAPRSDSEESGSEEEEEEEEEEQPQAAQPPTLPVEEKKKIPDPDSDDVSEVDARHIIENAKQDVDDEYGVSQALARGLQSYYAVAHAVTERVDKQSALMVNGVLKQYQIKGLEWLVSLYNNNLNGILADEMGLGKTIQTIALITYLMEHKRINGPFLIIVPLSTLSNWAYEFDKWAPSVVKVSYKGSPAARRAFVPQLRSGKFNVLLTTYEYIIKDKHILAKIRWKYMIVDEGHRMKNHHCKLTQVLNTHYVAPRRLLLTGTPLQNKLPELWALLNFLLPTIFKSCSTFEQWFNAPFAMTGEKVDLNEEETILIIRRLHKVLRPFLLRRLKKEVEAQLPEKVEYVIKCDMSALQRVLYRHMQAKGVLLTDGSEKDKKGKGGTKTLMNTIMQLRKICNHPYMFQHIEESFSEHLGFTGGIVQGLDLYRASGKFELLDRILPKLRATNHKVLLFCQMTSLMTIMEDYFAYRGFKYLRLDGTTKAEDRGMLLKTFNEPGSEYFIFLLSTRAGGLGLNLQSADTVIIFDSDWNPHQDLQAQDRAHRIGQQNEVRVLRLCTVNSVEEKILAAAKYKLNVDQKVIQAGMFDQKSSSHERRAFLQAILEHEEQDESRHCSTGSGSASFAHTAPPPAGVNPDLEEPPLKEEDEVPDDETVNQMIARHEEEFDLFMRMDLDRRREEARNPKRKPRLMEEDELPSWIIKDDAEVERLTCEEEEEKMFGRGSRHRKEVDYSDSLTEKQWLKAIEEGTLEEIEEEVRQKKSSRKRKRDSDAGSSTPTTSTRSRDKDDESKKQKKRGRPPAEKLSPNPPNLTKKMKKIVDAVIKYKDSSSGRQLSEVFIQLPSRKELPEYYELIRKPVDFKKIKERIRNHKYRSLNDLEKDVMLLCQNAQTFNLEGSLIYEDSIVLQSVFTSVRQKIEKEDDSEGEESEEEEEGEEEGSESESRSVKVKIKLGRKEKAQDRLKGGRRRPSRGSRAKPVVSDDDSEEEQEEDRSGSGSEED

T1 sequence (P51531 whole entry, species assumed): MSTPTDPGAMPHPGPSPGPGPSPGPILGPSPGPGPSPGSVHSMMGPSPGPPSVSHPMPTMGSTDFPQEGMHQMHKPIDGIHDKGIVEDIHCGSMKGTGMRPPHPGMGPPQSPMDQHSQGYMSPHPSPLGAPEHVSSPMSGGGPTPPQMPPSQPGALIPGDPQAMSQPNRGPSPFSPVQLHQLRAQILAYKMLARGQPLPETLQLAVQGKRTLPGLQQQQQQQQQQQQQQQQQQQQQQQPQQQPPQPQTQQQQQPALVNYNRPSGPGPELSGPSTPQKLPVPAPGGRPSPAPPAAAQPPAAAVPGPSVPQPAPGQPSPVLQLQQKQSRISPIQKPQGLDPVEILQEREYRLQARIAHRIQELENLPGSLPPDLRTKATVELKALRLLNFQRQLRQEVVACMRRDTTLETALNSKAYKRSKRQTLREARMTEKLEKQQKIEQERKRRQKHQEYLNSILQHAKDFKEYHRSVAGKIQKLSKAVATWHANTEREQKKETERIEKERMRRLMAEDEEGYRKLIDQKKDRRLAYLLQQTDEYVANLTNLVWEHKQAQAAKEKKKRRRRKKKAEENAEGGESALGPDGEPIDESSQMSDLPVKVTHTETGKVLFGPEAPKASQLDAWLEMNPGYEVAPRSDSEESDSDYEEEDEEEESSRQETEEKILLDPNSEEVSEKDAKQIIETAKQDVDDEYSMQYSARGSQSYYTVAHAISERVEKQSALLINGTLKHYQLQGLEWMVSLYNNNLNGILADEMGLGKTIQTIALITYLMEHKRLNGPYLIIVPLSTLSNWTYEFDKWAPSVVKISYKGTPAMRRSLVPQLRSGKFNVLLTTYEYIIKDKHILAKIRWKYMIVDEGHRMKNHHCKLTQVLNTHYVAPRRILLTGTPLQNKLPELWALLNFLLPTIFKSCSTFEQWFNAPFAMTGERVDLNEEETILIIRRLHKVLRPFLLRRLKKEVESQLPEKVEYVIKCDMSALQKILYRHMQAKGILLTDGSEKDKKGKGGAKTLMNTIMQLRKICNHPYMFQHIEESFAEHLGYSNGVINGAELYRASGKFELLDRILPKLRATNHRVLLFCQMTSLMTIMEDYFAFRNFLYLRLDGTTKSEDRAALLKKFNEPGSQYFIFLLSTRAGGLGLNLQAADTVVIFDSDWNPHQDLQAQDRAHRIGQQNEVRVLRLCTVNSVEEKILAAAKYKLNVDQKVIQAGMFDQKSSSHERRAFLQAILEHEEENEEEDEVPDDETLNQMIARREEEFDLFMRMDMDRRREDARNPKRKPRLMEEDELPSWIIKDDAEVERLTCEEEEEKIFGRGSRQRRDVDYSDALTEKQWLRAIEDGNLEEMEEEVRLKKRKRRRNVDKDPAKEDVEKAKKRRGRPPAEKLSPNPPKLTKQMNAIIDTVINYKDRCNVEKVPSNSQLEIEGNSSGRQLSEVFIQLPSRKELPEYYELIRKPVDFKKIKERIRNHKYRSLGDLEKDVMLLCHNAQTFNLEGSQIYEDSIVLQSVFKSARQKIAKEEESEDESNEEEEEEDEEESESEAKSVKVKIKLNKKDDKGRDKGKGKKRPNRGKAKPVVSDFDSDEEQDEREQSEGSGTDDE

CCN(C(=O)C1(c2ccccc2)CCN(c2cnnc(-c3ccccc3O)c2)CC1)C1CCN(CC2CCN(c3ccc([C@H]4CCC(=O)NC4=O)cc3)CC2)CC1 [Example 184, N-{1-[(1-{4-[(3R)-2,6-dioxopiperidin-3-yl]phenyl}piperidin-4-yl)methyl]piperidin-4-yl}-N-ethyl-1-[6-(2-hydroxyphenyl)pyridazin-4-yl]-4-phenylpiperidine-4-carboxamide]
DC50 [1]: 4.88 nM | Dmax [1]: 91.3% | Fold Selectivity SMARCA4/2 [1]: 8 | DC50 [2]: 37.6 nM | Dmax [2]: 80.7%

CN(C(=O)C1(c2ccnn2C)CCN(c2cnnc(-c3ccccc3O)c2)CC1)C1CCN(CC2CCN(c3ccc(C4CCC(=O)NC4=O)cc3)CC2)CC1 (racemic) [Example 91, rac-N-{1-[(1-{4-[(3R)-2,6-dioxopiperidin-3-yl]phenyl}piperidin-4-yl)methyl]piperidin-4-yl}-1-[6-(2-hydroxyphenyl)pyridazin-4-yl]-N-methyl-4-(1-methyl-1H-pyrazol-5-yl)piperidine-4-carboxamide]
DC50 [1]: 4.52 nM | Dmax [1]: 79.8% | Fold Selectivity SMARCA4/2 [1]: 2212 | Dmax [2]: 41.8%

CN(C(=O)C1(OC2CC2)CCN(c2cnnc(-c3ccccc3O)c2)CC1)C1CCN(CC2CCN(c3ccc([C@H]4CCC(=O)NC4=O)cc3)CC2)CC1 [Example 114, (r)-4-cyclopropoxy-n-(1-((1-(4-(2,6-dioxopiperidin-3-yl)phenyl)piperidin-4-yl)methyl)piperidin-4-yl)-1-(6-(2-hydroxyphenyl)pyridazin-4-yl)-n-methylpiperidine-4-carboxamide]
DC50 [1]: 9.94 nM | Dmax [1]: 78.6% | Fold Selectivity SMARCA4/2 [1]: 1006 | Dmax [2]: 49.9%

O=C1CCC(c2c(F)cc(N3CCC(CN4CCC5(CC4)CN(C(=O)C4(c6ccccc6)CCN(c6cnnc(-c7ccccc7O)c6)CC4)C5)CC3)cc2F)C(=O)N1 (racemic) [Example 193, rac-(3R)-3-(2,6-difluoro-4-{4-[(2-{1-[6-(2-hydroxyphenyl)pyridazin-4-yl]-4-phenylpiperidine-4-carbonyl}-2,7-diazaspiro[3.5]nonan-7-yl)methyl]piperidin-1-yl}phenyl)piperidine-2,6-dione]
DC50 [1]: 1.24 nM | Dmax [1]: 94.9% | Fold Selectivity SMARCA4/2 [1]: 11 | DC50 [2]: 13.2 nM | Dmax [2]: 84.2%

CN(C(=O)C1(c2cc3ccccn3n2)CCN(c2cnnc(-c3ccccc3O)c2)CC1)C1CCN(CCC2CCN(c3ccc(C4CCC(=O)NC4=O)cc3)CC2)CC1 (racemic) [Example 77, rac-N-{1-[2-(1-{4-[(3R)-2,6-dioxopiperidin-3-yl]phenyl}piperidin-4-yl)ethyl]piperidin-4-yl}-1-[6-(2-hydroxyphenyl)pyridazin-4-yl]-N-methyl-4-{pyrazolo[1,5-a]pyridin-2-yl}piperidine-4-carboxamide]
DC50 [1]: 4.12 nM | Dmax [1]: 87% | Fold Selectivity SMARCA4/2 [1]: 2427 | Dmax [2]: 44.2%

O=C1CCC(c2ccc(N3CCC(CN4CC5(C4)CN(C(=O)C4(c6ccc(Cl)c(Cl)c6)CCN(c6cnnc(-c7ccccc7O)c6)CC4)C5)CC3)cc2)C(=O)N1 (racemic) [Example 32, rac-(3R)-3-{4-[4-({6-[4-(3,4-dichlorophenyl)-1-[6-(2-hydroxyphenyl)pyridazin-4-yl]piperidine-4-carbonyl]-2,6-diazaspiro[3.3]heptan-2-yl}methyl)piperidin-1-yl]phenyl}piperidine-2,6-dione]
DC50 [1]: 71.7 nM | Dmax [1]: 63% | Fold Selectivity SMARCA4/2 [1]: 139.55 | Dmax [2]: 37.2%

O=C1CC[C@@H](c2ccc(N3CCC(CN4CCC(NCC5(c6ccccc6)CCN(c6cnnc(-c7ccccc7O)c6)CC5)CC4)CC3)cc2)C(=O)N1 [Example 135, (s)-3-(4-(4-((4-(((1-(6-(2-hydroxyphenyl)pyridazin-4-yl)-4-phenylpiperidin-4-yl)methyl)amino)piperidin-1-yl)methyl)piperidin-1-yl)phenyl)piperidine-2,6-dione]
DC50 [1]: 20.7 nM | Dmax [1]: 74.2% | Fold Selectivity SMARCA4/2 [1]: 9 | DC50 [2]: 191 nM | Dmax [2]: 61.9%

CC1(NC(=O)C2(c3ccccc3)CCN(c3cnnc(-c4ccccc4O)c3)CC2)CCN(C(=O)CN2CCC(c3ccc(N[C@@H]4CCC(=O)NC4=O)cc3)CC2)CC1 (racemic) [Example 86, rac-(r)-n-(1-(2-(4-(4-((2,6-dioxopiperidin-3-yl)amino)phenyl)piperidin-1-yl)acetyl)-4-methylpiperidin-4-yl)-1-(6-(2-hydroxyphenyl)pyridazin-4-yl)-4-phenylpiperidine-4-carboxamide]
DC50 [1]: 22.1 nM | Dmax [1]: 70.5% | Fold Selectivity SMARCA4/2 [1]: 452 | Dmax [2]: 53.7%

O=C1CCC(c2ccc(OCC3CCN(C(=O)C4CCN(C(=O)C5(c6ccccc6)CCN(c6cnnc(-c7ccccc7O)c6)CC5)CC4)CC3)cc2)C(=O)N1 (racemic) [Example 14, rac-(3R)-3-(4-{[1-(1-{1-[6-(2-hydroxyphenyl)pyridazin-4-yl]-4-phenylpiperidine-4-carbonyl}piperidine-4-carbonyl)piperidin-4-yl]methoxy}phenyl)piperidine-2,6-dione]
Dmax [1]: 22.2% | Fold Selectivity SMARCA4/2 [1]: 1 | Dmax [2]: 15.2%

CCN(C(=O)C1(c2ccccc2)CCN(c2cnnc(-c3ccccc3O)c2)CC1)C1CCN(C(=O)CN2CCN(c3ccc(C4CCC(=O)NC4=O)cc3)CC2)CC1 (racemic) [Example 185, rac-N-{1-[2-(4-{4-[(3R)-2,6-dioxopiperidin-3-yl]phenyl}piperazin-1-yl)acetyl]piperidin-4-yl}-N-ethyl-1-[6-(2-hydroxyphenyl)pyridazin-4-yl]-4-phenylpiperidine-4-carboxamide]
DC50 [1]: 7.13 nM | Dmax [1]: 88.8% | Fold Selectivity SMARCA4/2 [1]: 20 | DC50 [2]: 143 nM | Dmax [2]: 58.5%

O=C1CCC(c2ccc(OCC3CCN(CC4CCN(C(=O)C5(c6ccccc6)CCN(c6cnnc(-c7ccccc7O)c6)CC5)CC4)CC3)cc2)C(=O)N1 (racemic) [Example 11, rac-(3R)-3-[4-({1-[(1-{1-[6-(2-hydroxyphenyl)pyridazin-4-yl]-4-phenylpiperidine-4-carbonyl}piperidin-4-yl)methyl]piperidin-4-yl}methoxy)phenyl]piperidine-2,6-dione]
DC50 [1]: 21.2 nM | Dmax [1]: 69.1% | Fold Selectivity SMARCA4/2 [1]: 472.68 | Dmax [2]: 38.9%

O=C1CC[C@H](c2ccc(N3CCC(CN4CC5CCCC(C4)N(C(=O)C4(c6ccccc6)CCN(c6cnnc(-c7ccccc7O)c6)CC4)C5)CC3)cc2)C(=O)N1 (stereo partly drawn) [Example 45, (3R)-3-(4-{4-[(9-{1-[6-(2-hydroxyphenyl)pyridazin-4-yl]-4-phenylpiperidine-4-carbonyl}-3,9-diazabicyclo[3.3.2]decan-3-yl)methyl]piperidin-1-yl}phenyl)piperidine-2,6-dione]
Dmax [1]: 29.5% | Fold Selectivity SMARCA4/2 [1]: 1 | Dmax [2]: 9.72%

O=C1CC[C@@H](c2ccc(OCC3CCN(CC4CCN(C(=O)C5(c6ccccc6)CCN(c6cnnc(-c7ccccc7O)c6)CC5)CC4)CC3)cc2)C(=O)N1 [Example 35, (3S)-3-[4-({1-[(1-{1-[6-(2-hydroxyphenyl)pyridazin-4-yl]-4-phenylpiperidine-4-carbonyl}piperidin-4-yl)methyl]piperidin-4-yl}methoxy)phenyl]piperidine-2,6-dione]
DC50 [1]: 80.5 nM | Dmax [1]: 57% | Fold Selectivity SMARCA4/2 [1]: 124.30 | Dmax [2]: 22.6%

O=C1CCC(c2ccc(N3CCC4(CC3)COC(CN3CC5(CCN(C(=O)C6(c7ccccc7)CCN(c7cnnc(-c8ccccc8O)c7)CC6)CC5)C3)C4)cc2)C(=O)N1 (racemic) [Example 127, rac-(3R)-3-(4-{3-[(7-{1-[6-(2-hydroxyphenyl)pyridazin-4-yl]-4-phenylpiperidine-4-carbonyl}-2,7-diazaspiro[3.5]nonan-2-yl)methyl]-2-oxa-8-azaspiro[4.5]decan-8-yl}phenyl)piperidine-2,6-dione]
DC50 [1]: 32 nM | Dmax [1]: 64.2% | Fold Selectivity SMARCA4/2 [1]: 312 | Dmax [2]: 56.1%

CC1(C(=O)N2CC3(CN(CC4CCN(c5ccc([C@H]6CCC(=O)NC6=O)cc5)CC4)C3)C2)CCN(c2cnnc(-c3ccccc3O)c2)CC1 [Example 23, (3R)-3-(4-{4-[(6-{1-[6-(2-hydroxyphenyl)pyridazin-4-yl]-4-methylpiperidine-4-carbonyl}-2,6-diazaspiro[3.3]heptan-2-yl)methyl]piperidin-1-yl}phenyl)piperidine-2,6-dione]
DC50 [1]: 78.5 nM | Dmax [1]: 55.9% | Fold Selectivity SMARCA4/2 [1]: 127.44 | Dmax [2]: 39.1%

Cn1ccc(OC2(C(=O)N3CC4(CN(CCC5CCN(c6ccc(C7CCC(=O)NC7=O)c(F)c6)CC5)C4)C3)CCN(c3cnnc(-c4ccccc4O)c3)CC2)n1 (racemic) [Example 66, rac-3-(2-fluoro-4-(4-(2-(6-(1-(6-(2-hydroxyphenyl)pyridazin-4-yl)-4-((1-methyl-1H-pyrazol-3-yl)oxy)piperidine-4-carbonyl)-2,6-diazaspiro[3.3]heptan-2-yl)ethyl)piperidin-1-yl)phenyl)piperidine-2,6-dione]
DC50 [1]: 10.6 nM | Dmax [1]: 73.7% | Fold Selectivity SMARCA4/2 [1]: 947 | Dmax [2]: 20.7%

COC1(C(=O)N(C)C2CCN(CCC3CCN(c4ccc([C@H]5CCC(=O)NC5=O)cc4)CC3)CC2)CCN(c2cnnc(-c3ccccc3O)c2)CC1 [Example 196, (r)-n-(1-(2-(1-(4-(2,6-dioxopiperidin-3-yl)phenyl)piperidin-4-yl)ethyl)piperidin-4-yl)-1-(6-(2-hydroxyphenyl)pyridazin-4-yl)-4-methoxy-n-methylpiperidine-4-carboxamide]
DC50 [1]: 14 nM | Dmax [1]: 74% | Fold Selectivity SMARCA4/2 [1]: 714 | Dmax [2]: 28%
